As a reminder, the Ki is a dissociation constant, usually derived from enzyme kinetics or from competition with a known ligand. The term inhibition denotes the drop in the measured response relative to a control, in per cent. The term ED50 denotes the dose that gives a 50% effect, or the effect in half of the subjects.

Read-outs that look alike come from different tables or passages of the source. Some results are limits rather than exact numbers.

The source of these data is patent US20070270436A1, “NOVEL AMINO- AND IMINO-ALKYLPIPERAZINES” (Recordati Ireland Limited, priority 2006, published 2007).

Assay [1] addresses T1, human 5HT1A-serotonergic receptor (Homo sapiens, UniProt P08908).
T1 construct: expressed in transfected cells; host or cells: HeLa (human), stably transfected; membranes
T1 sequence (P08908 1-422): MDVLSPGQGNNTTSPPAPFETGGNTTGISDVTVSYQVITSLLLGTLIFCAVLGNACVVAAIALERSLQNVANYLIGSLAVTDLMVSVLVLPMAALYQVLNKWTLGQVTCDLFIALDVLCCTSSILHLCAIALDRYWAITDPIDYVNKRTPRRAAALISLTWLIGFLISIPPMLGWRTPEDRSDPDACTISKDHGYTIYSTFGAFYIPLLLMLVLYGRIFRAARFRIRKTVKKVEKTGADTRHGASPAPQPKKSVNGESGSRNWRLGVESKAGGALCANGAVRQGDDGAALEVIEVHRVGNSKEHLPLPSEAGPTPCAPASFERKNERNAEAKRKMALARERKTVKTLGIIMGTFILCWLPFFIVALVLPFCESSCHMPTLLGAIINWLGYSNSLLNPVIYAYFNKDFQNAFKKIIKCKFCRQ
Kind of assay: Radioligand binding to recombinant 5-HT1A receptor ([3H]8-OH-DPAT, HeLa cell membranes). To be noted: 1 nM [3H]8-OH-DPAT; Ki from IC50 by the Cheng equation; read-out: Ki (nM), binding affinity for 5HT1A receptor. The procedure: Genomic clone G-21 encoding the human 5HT1A-serotonergic receptor was stably transfected in a human cell line (HeLa). HeLa cells were grown as monolayers in Dulbecco's modified Eagle medium (DMEM), containing 10% fetal bovine serum and gentamycin (100 μg/ml) at 37° C. in a humidified atmosphere of 5% CO2 and air. The cells were detached from the growth flask at 95% confluence by a cell scraper and were lysed in cold 5 mM Tris and 5 mM EDTA buffer (pH 7.4). The homogenates were centrifuged at 40000×g×20 minutes and the pellets were resuspended in a small volume of cold 5 mM Tris and 5 mM EDTA buffer (pH 7.4) and immediately frozen and stored at −70° C. until use. On the day of experiment, the cell membranes were resuspended in incubation buffer: 50 mM Tris (pH 7.4), 2.5 mM MgCl2, 10 μM pargyline (Fargin et al., Nature 335, 358-360, 1988). The membranes were incubated in a final volume of 0.32 ml for 30 minutes at 30° C. with 1 nM [^3H]8-OH-DPAT, in the absence or presence of the test compounds. Non-specific binding was determined in the presence of 10 μM 5-HT. Incubation was stopped by addition of cold Tris buffer and rapid filtration through UniFilter GF/C plate.
The affinity of the tested compounds was evaluated as inhibition of specific binding of the radioligand to 5-HT1A receptor (IC50) by using the non-linear curve-fitting program Allfit (De Lean et al., Am. J. Physiol. 235, E97-E102 (1978)). The IC50 value was converted to an affinity constant (Ki) by the equation of Cheng et al., Biochem. Pharmacol. 22, 3099-3108 (1973).

Assay [2] concerns the target T2, human cloned 5-HT1A receptors (Homo sapiens, UniProt P08908).
T2 construct: expressed in transfected cells; host or cells: HeLa (human), stably transfected; membranes
T2 sequence (P08908 1-422): T1 sequence (P08908 1-422)
Kind of assay: [35S]GTPγS binding, functional activity. It is filed as biochemical. Set-up: key: neutral antagonists (NA); inverse agonists (IA). The note with it: HeLa membranes with human 5-HT1A. The procedure: On the date of the experiment, cell membranes from HeLa cells transfected with human cloned 5-HT1A receptors were resuspended in buffer pH 7.4 containing 20 mM HEPES, 3 mM MgCl2 and 120 mM NaCl (Stanton, J. A.; Beer, M. S. Eur. J. Pharmacol. 320, 267-275, 1997). The membranes were incubated with 10 μM GDP and decreasing concentrations of test drugs (from 100 μM to 0.1 nM) or decreasing concentrations of 5-HT (from 100 μM to 0.1 nM, reference curve) for 20 min at 30° C. in a final volume of about 0.25 ml. [^35S]GTPγS (200-250 pM in 10 μl) was added to samples and incubated for a further 30 min at 30° C. Non-specific binding was determined in the presence of 10 μM GTPγS. The incubation was stopped by addition of ice-cold HEPES buffer and rapid filtration on Unifilter GF/C filters, using a Filtermate cell harvester (Packard). The filters were washed four times with total 1.2 ml of same buffer. Radioactivity was counted by liquid scintillation spectrometry with efficiency >90% (TopCount Packard). Stimulation of [^35S]GTPγS binding induced by the compounds tested was expressed as % increase in binding above basal value, being the maximal stimulation observed with 5-HT taken as 100%. The concentration-response curve of the agonistic activity was analyzed by non linear fitting program (De Lean et al., Am. J. Physiol. 235, E97-E102, 1978).
A stimulation of [^35S]GTPγS binding represented the functional correlate of the binding of an agonist compound at the 5-HT1A receptors. Stimulation induced by the endogenous ligand 5-HT was considered the maximal stimulation attainable. Compounds stimulating [^35S]GTPγS binding at a lower level were considered as partial agonists. […] Compounds that reduced [^35S]GTPγS binding were considered as inverse agonists.

In a further assay the target is T3, 5-HT1A receptors (Rattus norvegicus, UniProt P19327).
T3 construct: from tissue; host or cells: living male Sprague-Dawley rats (whole animal, behavioural read-out)
T3 sequence (P19327 1-422): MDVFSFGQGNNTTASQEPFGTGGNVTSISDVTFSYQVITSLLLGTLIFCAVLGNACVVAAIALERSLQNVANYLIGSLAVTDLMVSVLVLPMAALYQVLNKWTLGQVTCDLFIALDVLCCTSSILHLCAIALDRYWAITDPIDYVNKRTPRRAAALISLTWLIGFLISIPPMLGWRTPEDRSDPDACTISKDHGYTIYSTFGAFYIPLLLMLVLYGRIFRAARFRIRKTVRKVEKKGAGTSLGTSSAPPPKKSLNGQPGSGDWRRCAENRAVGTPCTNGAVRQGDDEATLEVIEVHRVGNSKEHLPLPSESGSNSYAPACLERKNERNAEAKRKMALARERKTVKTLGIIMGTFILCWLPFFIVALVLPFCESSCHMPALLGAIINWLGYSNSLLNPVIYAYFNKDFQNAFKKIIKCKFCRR
As to the kind of experiment: Inhibition of serotonergic syndrome (forepaw treading) induced by 8-OH-DPAT in rats (post-synaptic antagonism). It is filed as in vivo. The note with it: rat, 10 mg/kg p.o. The procedure: The inhibitory effect of 5-HT1A-receptor antagonists on stereotyped forepaw treading induced in rats by subcutaneous injection of 8-OH-DPAT was evaluated by the method of Tricklebank (Tricklebank et al., Eur. J. Pharmacol., 117: 15, 1985) with minor modifications as described below.
Male Sprague-Dawley rats [Crl: CD® (SD) IGS BR] weighing 150-175 g from Charles River Italia were used. The animals were housed with free access to food and water and maintained on a forced 12-hour-light/12-hour-dark cycle at 22-24° C. of temperature. On the day of the experiment, the rats were placed singly in clear plastic containers, 10-15 minutes before oral administration of the vehicle or compounds to be tested. For evaluation of antagonistic activity, the compounds were administered 1 and 4 hours before induction of stereotypy by 8-OH-DPAT (1 mg/kg subcutaneously). Observation sessions lasted 30 seconds and began 3 minutes after 8-OH-DPAT treatment and were repeated every 3 minutes over a period of 15 minutes.
The appearance of the symptoms induced by postsynaptic stimulation of 5-HT1A receptors was noted, and the intensity was scored using an intensity scale in which: 0=absent, 1=equivocal, 2=present and 3=intense. Behavioural scores for treated rats were accumulated throughout the observation time (5 observation periods) and expressed as mean values of 4 rats/dose. Change in mean values of treated animals in comparison with control (vehicle) group, expressed as per-cent inhibition, was used to quantify the antagonistic activity.
In order to quantitate the potency of the compound of Example 24 in inhibiting the stereotypy (forepaw treading) induced by 8-OH-DPAT, an ED50 value (dose inhibiting by 50% the forepaw treading) was evaluated by means of linear regression using the least square method.

Assay [3] has as its system rhythmic bladder-voiding contractions. As to the kind of experiment: Rhythmic bladder-voiding contractions induced by bladder filling in anaesthetised rats. It is filed as in vivo, rat. The note with it: intravenous administration. The procedure:
Female Sprague-Dawley rats weighing 225-275 g (Crl: CD® (SD) IGS BR, Charles River Italia) were used. The animals were housed with free access to food and water and maintained on a forced 12-hour alternating light-dark cycle at 22-24° C. for at least one week, except during the experiment. The activity on rhythmic bladder voiding contractions was evaluated according to the method of Dray (Dray J., Pharmacol. Methods, 13:157, 1985), with some modifications as in Guarneri (Guarneri, Pharmacol. Res. 27:173, 1993). Briefly, the rats were anaesthetised by subcutaneous injection of 1.25 g/kg (5 ml/kg) urethane, after which the urinary bladder was catheterised via the urethra using PE 50 polyethylene tubing filled with physiological saline. The catheter was tied in place with a ligature around the external urethral orifice and was connected to conventional pressure transducers (Statham P23 ID/P23 XL). […] The bladder was then filled via the recording catheter by incremental volumes of warm (37° C.) saline until reflex bladder-voiding contractions occurred (usually 0.8-1.5 ml). For intravenous injection of bioactive compounds, PE 50 polyethylene tubing filled with physiological saline was inserted into the jugular vein.
From the cystometrogram, the number of contractions recorded 15 minutes before (basal values) and after treatment, as well as the mean amplitude of these contractions (mean height of the peaks in mmHg), was evaluated.
Since most compounds produced an effect that was relatively rapid in onset and led to a complete cessation of bladder contractions, bioactivity was conveniently estimated by measuring the duration of bladder quiescence (i.e., the time during which no contractions occurred). The number of tested animals showing a reduction in the number of contractions higher than 30% of that observed in the basal period was recorded too.
The extrapolated doses which induced a reduction in the number of contractions greater than 30% in 50% of the treated rats (ED50) were also evaluated by the method of Bliss (Bliss C. I., Quart J. Pharm. Pharmacol. 11, 192-216, 1938).

For `COC(=O)N[C@H](C1CCCCC1)[C@@H](CCN1CCN(c2ccccc2OC)CC1)c1ccccc1F` (racemic) [Example 17, (RS,SR)-{1-Cyclohexyl-2-(2-fluorophenyl)-4-[4-(2-methoxyphenyl)-piperazin-1-yl]butyl}carbamic acid methyl ester], the Ki in assay [1] was 0.68 nM. The “Functional Activity” value in assay [2] is “IA”. The inhibition at 10 mg/kg on 5-HT1A receptors (1 h before 8-OH-DPAT 1 mg/kg s.c., read-out: % Inhibition of forepaw treading, 1 h) came out at 75%; on 5-HT1A receptors (4 h before 8-OH-DPAT 1 mg/kg s.c., read-out: % Inhibition of forepaw treading, 4 h) it was 92%.

For `COc1ccccc1N1CCN(CC[C@@H](c2ccccc2F)[C@H](NC(=S)N(C)C)C2CCCCC2)CC1` (single isomer, unassigned) [Example 24A, 3-{(1R,2S) or (1S,2R)-1-Cyclohexyl-2-(2-fluorophenyl)-4-[4-(2-methoxyphenyl)piperazin-1-yl]butyl}-1,1-dimethylthiourea], the Ki in assay [1] came out at 0.7 nM. In assay [2], the “Functional Activity” value is “IA”.

Consider `CC(=O)N(C)C(C1CCCCC1)C(CCN1CCN(c2cccc3c2OCCO3)CC1)c1ccccc1F` (stereo not drawn) [Example 41, N-[1-Cyclohexyl-4-[4-(2,3-dihydrobenzo[1,4]dioxin-5-yl)piperazin-1-yl]-2-(2-fluoro-phenyl)butyl]-N-methylacetamide], for which the inhibition constant Ki in assay [1] amounted to 0.9 nM. In addition, the “Functional Activity” value in assay [2] is on record as “IA”.

Consider `COc1ccccc1N1CCN(CCC(c2ccccc2F)C(NCc2ccccc2)C2CCCCC2)CC1` (stereo not drawn) [Example 13, (RS,SR)- and (RS,RS)-N-Benzyl-{1-cyclohexyl-2-(2-fluorophenyl)-4-[4-(2-methoxyphenyl)piperazin-1-yl]butyl}amine], for which, in assay [1], the Ki is 0.3 nM. The “Functional Activity” value in assay [2] is on record as “IA”.

Turning to `Cc1c(-c2ccccc2)oc2c(C(=O)OCCN3CCCCC3)cccc2c1=O` [Flavoxate, flavoxate], the ED50 in assay [3] (Rattus norvegicus, read-out: ED50 (frequency) (extrapolated dose inducing a reduction of the number of contractions >30% in 50% of treated rats)) is 2.65 mg/kg. Besides, the “ED10 min (extrapolated dose inducing 10 minutes of disappearance of the contractions)” value in assay [3] is above 10 mg/kg.

Turning to `COc1ccccc1N1CCN(CC[C@@H](c2ccccc2F)[C@@H](C2CCCCC2)N(C(C)=O)C(C)=O)CC1` (racemic) [Example 8, N-Acetyl-N-{(RS,SR)-1-cyclohexyl-2-(2-fluorophenyl)-4-[4-(2-methoxyphenyl)piperazin-1-yl]butyl}acetamide], the inhibition constant (Ki) in assay [1] was determined as 0.68 nM. Besides, the “Functional Activity” value in assay [2] is reported as “IA”.

On to `COc1ccccc1N1CCN(CC[C@@H](c2ccccc2F)[C@@H](C2CCCCC2)N(C)C(=S)N(C)C)CC1` (racemic) [Example 53, 1-{(RS,SR)-1-Cyclohexyl-2-(2-fluorophenyl)-4-[4-(2-methoxyphenyl)piperazin-1-yl]butyl}-1,3,3-trimethylthiourea], for which the Ki in assay [1] came to 1.7 nM. In addition, the “Functional Activity” value in assay [2] is “IA”.

As for `CON[C@H](C1CCCCC1)[C@@H](CCN1CCN(c2ccccc2OC)CC1)c1ccccc1F` (racemic) [Example 4a, (RS,SR)-N-{1-Cyclohexyl-2-(2-fluorophenyl)-4-[4-(2-methoxyphenyl)piperazin-1-yl]butyl}-O-methylhydroxylamine], the Ki in assay [1] is 0.68 nM. In addition, the “Functional Activity” value in assay [2] is reported as “IA”.
